Data published in ChEMBL document CHEMBL1131535, “Conformation-function relationship of vitamin D: conformational analysis predicts potential side-chain structure” (1998).

test system: HL-60; experiment: Relative differentiating activity of HL-60 cells when the reference value of […] is defined as 1.; assay type: functional, Homo sapiens

**Q.** `C=C1/C(=C\C=C2/CCCC3(C)C2CCC3[C@H](C)/C=C/CC(O)(C(F)(F)F)C(F)(F)F)C[C@@H](O)C[C@@H]1O` (stereo not given in full) was tested. Which Relative differentiating activity did it give?
**A.** 30

**Q.** `C=C1/C(=C\C=C2/CCCC3(C)C2CCC3[C@H](C)CCCC(F)(F)C(C)(C)O)C[C@@H](O)C[C@@H]1O` (stereo not given in full) was tested. Which Relative differentiating activity did it give?
**A.** 10

**Q.** `C=C1/C(=C\C=C2/CCCC3(C)C2CCC3[C@H](C)/C=C/CC(O)(CC)CC)C[C@@H](O)C[C@@H]1O` (stereo not given in full) was tested. Which Relative differentiating activity did it give?
**A.** 60

**Q.** With `C=C1/C(=C\C=C2/CCCC3(C)C2CCC3[C@H](C)/C=C/CCCC(C)(C)O)C[C@@H](O)C[C@@H]1O` (stereo not given in full) as the compound, how does the Relative differentiating activity read?
**A.** 10

**Q.** For `C=C1/C(=C\C=C2/CCCC3(C)C([C@H](C)CC#CC(C)(C)O)=CCC23)C[C@@H](O)C[C@@H]1O` (stereo not given in full), which Relative differentiating activity is on record?
**A.** 10

**Q.** With `C=C1/C(=C\C=C2/CCCC3(C)C2CCC3[C@H](C)/C=C/CCC(C)(C)O)C[C@@H](O)C[C@@H]1O` (stereo not given in full) as the compound, how does the Relative differentiating activity read?
**A.** 10

**Q.** For `C=C1/C(=C\C=C2/CCCC3(C)C([C@H](C)CC#CC(O)(C(F)(F)F)C(F)(F)F)=CCC23)C[C@@H](O)C[C@@H]1O` (stereo not given in full), which Relative differentiating activity is on record?
**A.** 80

test system: U-937; experiment: Relative differentiating activity of U 937 cells when the reference value of […] is defined as 1.; assay type: functional, Homo sapiens

**Q.** Which Relative differentiating activity does the source give for `C=C1/C(=C\C=C2/CCCC3(C)C2CCC3[C@@H](C)CCCCC(C)(C)O)C[C@@H](O)C[C@@H]1O` (stereo not given in full) here?
**A.** 200

**Q.** For `C=C1/C(=C\C=C2/CCCC3(C)C2CCC3[C@@H](C)CCCCC(O)(CC)CC)C[C@@H](O)C[C@@H]1O` (stereo not given in full), which Relative differentiating activity is on record?
**A.** 200

**Q.** `C=C1/C(=C\C=C2/CCCC3(C)C2CCC3[C@@H](C)OCCCC(C)(C)O)C[C@@H](O)C[C@@H]1O` (stereo not given in full) was tested. Which Relative differentiating activity did it give?
**A.** 1176

**Q.** `C=C1/C(=C\C=C2/CCCC3(C)C2CCC3[C@H](C)CCCCC(O)(CC)CC)C[C@@H](O)C[C@@H]1O` (stereo not given in full) was tested. Which Relative differentiating activity did it give?
**A.** 5

**Q.** Which Relative differentiating activity does the source give for `C=C1/C(=C\C=C2/CCCC3(C)C2CCC3[C@@H](C)/C=C/CCC(O)(CC)CC)C[C@@H](O)C[C@@H]1O` (stereo not given in full) here?
**A.** 1000

**Q.** How did the Relative differentiating activity turn out when `C=C1/C(=C\C=C2/CCC[C@]3(C)[C@@H](C(C)OCCCC(O)(CC)CC)CC[C@@H]23)C[C@@H](O)C[C@@H]1O` (single isomer, unassigned) [LEXACALCITOL] was run?
**A.** 20

**Q.** Which Relative differentiating activity does the source give for `C=C1/C(=C\C=C2/CCC[C@]3(C)[C@@H]([C@@H](C)OCCCC(O)(CC)CC)CC[C@@H]23)C[C@@H](O)C[C@@H]1O` [LEXACALCITOL] here?
**A.** 20000

**Q.** With `C=C1/C(=C\C=C2/CCC[C@]3(C)[C@@H]([C@H](C)/C=C/C=C/C(O)(CC)CC)CC[C@@H]23)C[C@@H](O)C[C@@H]1O` [SEOCALCITOL] as the compound, how does the Relative differentiating activity read?
**A.** 67
